The values that follow come from article PMC7413254 (Nature Communications, 2020).

The target in assay [1] is T1, PfCRT^Dd2 (Plasmodium falciparum, UniProt Q9N623, A220S/I356T/K76T/M74I/N326S/N75E/Q271E/R371I). In words: [3H]CQ uptake into Xenopus oocytes, cis-inhibition by unlabelled solute. The following applies: PfCRTDd2 oocytes, background [3H]CQ accumulation subtracted, normalised to oocyte type control. The assay is classed as cell-based. The method in brief:
(§1)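 Transport runs from the acidic bath into the cytosol, analogous to PfCRT-mediated efflux out of the vacuole. Non-expressing oocytes act as background.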

The target of assay [2] is T2, PfCRT^Ecu1110 (Plasmodium falciparum, UniProt Q9N623, A220S/I356L/K76T/N326D). The assay is described as above. The note with it: for PfCRT-mediated [3H]CQ transport, cis-inhibition (% PfCRTEcu1110 control): PfCRTEcu1110 oocytes, background [3H]CQ accumulation subtracted, normalised to oocyte type control; for [3H]CQ transport (% PfCRTEcu1110 control), cis-inhibition, PfCRTEcu1110: PfCRT-mediated component (background subtracted), sheet title says normalised to PfCRTDd2 control, mean ± SEM, SEM. Format: cell-based. In outline:
as §1

The target in assay [3] is T3, PfCRT^3D7 (Plasmodium falciparum, UniProt Q8IBZ9). In words: cell-based. The assay is classed as cell-based. The note with it: PfCRT3D7 oocytes, normalised to oocyte type control. The method in brief: (§2)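 Oocytes (ten per treatment, ≥4 independent frogs/days) were preloaded by injecting VF-6 in 25 nL ND96 at pH 5.0, 5.5, 6.0 or 7.0, or Na^+-free choline buffer, then uptake run 1.5 h, 27.5 °C, ND96 pH 5.5 by default. Internal concentrations assumed ~400 nL oocyte volume.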

The target in assay [4] is T1, PfCRT^Dd2. In words: cell-based. The note with it: for PfCRT-mediated [3H]CQ transport, trans-stimulation (% PfCRTDd2 control): PfCRTDd2 oocytes, normalised to oocyte type control; for [3H]CQ transport (% PfCRTDd2 control), trans-stimulation, PfCRTDd2: PfCRT-mediated component (background subtracted), mean ± SEM, SEM. The assay is classed as cell-based. In outline: as §2

For assay [5], the target named is T2, PfCRT^Ecu1110. In words: cell-based. The assay is classed as cell-based. The note with it: for PfCRT-mediated [3H]CQ transport, trans-stimulation (% PfCRTEcu1110 control): PfCRTEcu1110 oocytes, normalised to oocyte type control; for [3H]CQ transport (% PfCRTDd2 control), trans-stimulation, PfCRTEcu1110: PfCRT-mediated component (background subtracted), sheet title says normalised to PfCRTDd2 control, mean ± SEM, SEM. In outline:
as §2

The subject of assay [6] is PfCRT. Kind of assay: Potential co-substrates tested for influx of VF-6 via PfCRT into the oocyte. Format: cell-based, Plasmodium falciparum. More on the design: key: X: Compounds that have been tested as potential co-substrates but are not required for influx of VF-6 via PfCRT into the oocyte.
Assay [7] concerns the target T3, PfCRT^3D7. In words: cell-based. The following applies: mean ± SEM, n = 5, SEM. As for the experimental part:
(§3) The characterisation of [^3H]VF-6 transport via 23 different field and laboratory-derived isoforms of PfCRT was undertaken with oocytes two days post-cRNA-injection (Figs. 3a–j, 4; Supplementary Fig. 2). The oocytes were injected with 25 nL of ND96 buffer (pH 5.5) supplemented with [^3H]VF-6 and unlabelled VF-6 to achieve estimated intracellular concentrations of 1.4 and 200 μM, respectively. Ten oocytes that had resealed at the injection site were transferred to a 5 mL polystyrene round bottom tube (In Vitro Technologies) and washed with 3.5 mL of ND96 buffer before being transferred to separate wells of a white 96-well plate (PerkinElmer). This treatment served to establish the amount of radioactivity within the oocytes immediately prior to the commencement of the transport assay. Another 10 resealed oocytes were transferred to a 5 mL tube and washed with 3.5 mL of ND96 buffer. […] The assay was terminated by removing the reaction buffer with a pipette and washing the oocytes twice with 3.5 mL of ice-cold ND96 buffer. Each oocyte was transferred to a separate well of a white 96-well plate. The oocytes were lysed by the addition of 20 μL of 10% (w/v) SDS and overnight incubation at room temperature. The lysed oocyte was then combined with 150 μL of MicroScint-40 microscintillant (PerkinElmer), the plate covered with a TopSeal-A (PerkinElmer), and the radioactivity measured with a MicroBeta^2 microplate liquid scintillation analyser (PerkinElmer). VF-6 transport was calculated by subtracting the amount of radioactivity (measured in counts per minute) present within the oocytes at the end of the incubation from that measured in the oocytes sampled immediately before the commencement of the assay. The pH-dependence of transport (Fig. 3c) was determined by injecting the oocytes with [^3H]VF-6 suspended in 25 nL ND96 buffer adjusted to pH 5.0, 5.5, 6.0 or 7.0, which corresponded to the injection of 2.5–250 fmol of H^+. The dependence of [^3H]VF-6 transport on Na^+ or Cl^− was examined by injecting the oocytes with [^3H]VF-6 suspended in the control ND96 buffer (pH 5.5) or a version of this buffer that lacked either Na^+ or Cl^− (Supplementary Fig. 2). […] The dependence of peptide transport on Ca^2+ was determined by injecting the oocytes with [^3H]VF-6 suspended in ND96 buffers that contained different concentrations of Ca^2+ (0–5 mM; Supplementary Fig. 2). […] The dependence of PfCRT-mediated transport on the membrane potential was examined by using (1) Na^+ ionophore III in conjunction with the Na^+ gradients listed in Supplementary Data 7 and (2) Cl^− ionophore III in conjunction with the Cl^− gradients listed in Supplementary Data 7 to clamp the membrane potential of the oocyte from −80 to +80 mV. […] The kinetic parameters for VF-6 transport via different isoforms of PfCRT (Figs. 3e and 4a) were determined in SigmaPlot Windows Version 11.0 by a least-squares fit of the Michaelis–Menten equation to the data.
(§4) A subset of assays measured the ability of solutes known to interact with PfCRT to either cis-inhibit, trans-inhibit or trans-stimulate [^3H]VF-6 transport. These experiments involved adding these solutes to either the cis- or trans-side of the membrane relative to [^3H]VF-6. […] At least five independent experiments were performed (on different days and using oocytes from different frogs), and within each experiment measurements were made from ten oocytes per treatment.

Assay [8] has as its target T1, PfCRT^Dd2. In words: cell-based. The note with it: mean ± SEM, n = 5, SEM. As for the experimental part:
as §3, §4

In assay [9] the target is T2, PfCRT^Ecu1110. In words: cell-based. The note with it: mean ± SEM, n = 5, SEM. As for the experimental part:
as §3, §4

Where [10] appears, read: [test solute]i = 5 mM (intracellular).
The mark [11] stands for this setting: [test solute]i = 45 mM (intracellular; 30 mM for some solutes due to solubility).
Where [12] appears, read: [test solute]i = 5 mM (injected).
[13] abbreviates: [test solute]i = 45 mM (30 mM for some solutes due to solubility).

Where two headings read alike, the source gives them in different places.

T3 sequence (Q8IBZ9 59-398): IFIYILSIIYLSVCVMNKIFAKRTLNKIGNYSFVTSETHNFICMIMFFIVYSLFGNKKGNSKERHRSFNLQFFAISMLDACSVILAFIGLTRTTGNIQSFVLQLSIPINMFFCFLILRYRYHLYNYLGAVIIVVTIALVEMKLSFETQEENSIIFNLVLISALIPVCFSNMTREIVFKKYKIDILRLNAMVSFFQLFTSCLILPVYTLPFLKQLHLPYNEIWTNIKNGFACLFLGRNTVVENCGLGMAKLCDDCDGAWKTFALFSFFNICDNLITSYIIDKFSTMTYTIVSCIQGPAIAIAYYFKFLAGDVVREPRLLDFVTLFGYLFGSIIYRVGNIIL
T1 sequence (Q9N623 whole entry A220S/I356T/K76T/M74I/N326S/N75E/Q271E/R371I): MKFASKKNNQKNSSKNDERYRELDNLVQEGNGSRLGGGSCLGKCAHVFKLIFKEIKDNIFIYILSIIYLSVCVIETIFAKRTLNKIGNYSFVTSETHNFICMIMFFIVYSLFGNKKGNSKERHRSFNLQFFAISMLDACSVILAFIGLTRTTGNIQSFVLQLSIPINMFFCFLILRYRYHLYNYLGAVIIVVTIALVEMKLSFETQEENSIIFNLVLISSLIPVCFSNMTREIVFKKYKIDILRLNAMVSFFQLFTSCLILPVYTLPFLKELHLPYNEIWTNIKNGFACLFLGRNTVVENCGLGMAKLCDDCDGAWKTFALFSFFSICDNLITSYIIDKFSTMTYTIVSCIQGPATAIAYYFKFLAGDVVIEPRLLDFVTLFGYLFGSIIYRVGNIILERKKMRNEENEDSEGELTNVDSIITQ
T2 sequence (Q9N623 whole entry A220S/I356L/K76T/N326D): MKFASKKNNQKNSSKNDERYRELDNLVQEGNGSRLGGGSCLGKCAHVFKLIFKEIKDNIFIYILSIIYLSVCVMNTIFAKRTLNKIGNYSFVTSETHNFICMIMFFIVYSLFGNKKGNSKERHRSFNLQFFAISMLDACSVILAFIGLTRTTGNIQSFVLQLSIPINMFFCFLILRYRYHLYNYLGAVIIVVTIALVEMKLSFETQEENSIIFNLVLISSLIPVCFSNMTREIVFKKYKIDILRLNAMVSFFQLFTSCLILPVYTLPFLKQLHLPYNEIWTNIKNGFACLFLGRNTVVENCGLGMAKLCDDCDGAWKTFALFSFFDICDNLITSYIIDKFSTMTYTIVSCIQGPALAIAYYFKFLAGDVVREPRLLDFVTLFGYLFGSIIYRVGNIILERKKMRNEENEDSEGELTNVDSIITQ

As to VDPVN [VN-5], the “PfCRT-mediated [3H]CQ transport, cis-inhibition (% PfCRTDd2 control)” value is given as 42 ± 2.7 % PfCRTDd2 control in assay [1] ([test solute] = 0.5 mM), 30 ± 3.0 % PfCRTDd2 control in [1] ([test solute] = 1 mM) and 19 ± 0.3 % PfCRTDd2 control in [1] ([test solute] = 2 mM). The “PfCRT-mediated [3H]CQ transport, cis-inhibition (% PfCRTEcu1110 control)” value turned out to be 52 ± 1.8 % PfCRTEcu1110 control in assay [2] ([test solute] = 0.5 mM), 38 ± 2.6 % PfCRTEcu1110 control in assay [2] ([test solute] = 1 mM) and 27 ± 0.5 % PfCRTEcu1110 control in [2] ([test solute] = 2 mM). Also, the “[3H]CQ transport (% PfCRTEcu1110 control), cis-inhibition, PfCRTEcu1110” value in assay [2] ([test solute] = 0.5 mM) came to 16 ± 0.4 % PfCRTEcu1110 control; in assay [2] ([test solute] = 2 mM), 9.0 ± 0.2 % PfCRTEcu1110 control. Moreover, the “PfCRT-mediated [3H]CQ transport, trans-stimulation (% PfCRT3D7 control)” value in assay [3] (setting [10]) came to 131 ± 4.6 % PfCRT3D7 control; in assay [3] (setting [11]), 181 ± 5.7 % PfCRT3D7 control. The “PfCRT-mediated [3H]CQ transport, trans-stimulation (% PfCRTDd2 control)” value in assay [4] (setting [10]) was determined as 101 ± 3.5 % PfCRTDd2 control; in assay [4] (setting [11]), 112 ± 1.4 % PfCRTDd2 control. Moreover, the figures for the “[3H]CQ transport (% PfCRTDd2 control), trans-stimulation, PfCRTDd2” value in assay [4] (setting [12]) and in [4] (setting [13]) were 101 ± 3.5 % PfCRTDd2 control and 112 ± 1.4 % PfCRTDd2 control, respectively. In addition, the “PfCRT-mediated [3H]CQ transport, trans-stimulation (% PfCRTEcu1110 control)” value in [5] (setting [10]) was found to be 128 ± 3.6 % PfCRTEcu1110 control; in assay [5] (setting [11]) it was 136 ± 3.5 % PfCRTEcu1110 control. Besides, the “[3H]CQ transport (% PfCRTDd2 control), trans-stimulation, PfCRTEcu1110” value in assay [5] (setting [12]) is on record as 39 ± 1.5 % PfCRTEcu1110 control; in assay [5] (setting [13]), 41 ± 1.9 % PfCRTEcu1110 control. Further, the “Tested as potential co-substrate but not required for influx of VF-6 via PfCRT into the oocyte” value in assay [6] is “X”.

`CN(C)CCC(c1ccc(Cl)cc1)c1ccccn1` (stereo not shown) [CP, chlorpheniramine, reference compound]: the IC50 amounted to 12 ± 0.7 µM in assay [7] (drug on opposite side to [3H]VF-6, read-out: Trans-inhibition IC50 of [3H]VF-6 transport, PfCRT3D7); 9.8 ± 0.5 µM in [7] (drug on same side as [3H]VF-6, read-out: Cis-inhibition IC50 of [3H]VF-6 transport, PfCRT3D7); 5 ± 1.1 µM in [8] (Cis-inhibition IC50 of [3H]VF-6 transport, PfCRTDd2, drug on same side as [3H]VF-6); 8.8 ± 0.3 µM in [8] (Trans-inhibition IC50 of [3H]VF-6 transport, PfCRTDd2, drug on opposite side to [3H]VF-6); 6.2 ± 0.3 µM in [9] (Cis-inhibition IC50 of [3H]VF-6 transport, PfCRTEcu1110, drug on same side as [3H]VF-6); 7.2 ± 0.2 µM in [9] (Trans-inhibition IC50 of [3H]VF-6 transport, PfCRTEcu1110, drug on opposite side to [3H]VF-6).

In the case of DPVNF [DF-5], the “PfCRT-mediated [3H]CQ transport, cis-inhibition (% PfCRTDd2 control)” value in assay [1] ([test solute] = 0.5 mM) was 38 ± 3.1 % PfCRTDd2 control; in assay [1] ([test solute] = 1 mM), 27 ± 0.9 % PfCRTDd2 control; in assay [1] ([test solute] = 2 mM), 15 ± 0.5 % PfCRTDd2 control. In addition, the entries for the “PfCRT-mediated [3H]CQ transport, cis-inhibition (% PfCRTEcu1110 control)” value in [2] ([test solute] = 0.5 mM), in [2] ([test solute] = 1 mM) and in [2] ([test solute] = 2 mM) were 40 ± 2.1 % PfCRTEcu1110 control, 32 ± 1.6 % PfCRTEcu1110 control and 21 ± 1.0 % PfCRTEcu1110 control, respectively. In addition, the “[3H]CQ transport (% PfCRTEcu1110 control), cis-inhibition, PfCRTEcu1110” value in [2] ([test solute] = 2 mM) worked out at 7.0 ± 0.1 % PfCRTEcu1110 control. Moreover, the “PfCRT-mediated [3H]CQ transport, trans-stimulation (% PfCRT3D7 control)” value in assay [3] (setting [10]) is recorded as 128 ± 3.1 % PfCRT3D7 control; in assay [3] (setting [11]), 158 ± 4.2 % PfCRT3D7 control. Also, the “PfCRT-mediated [3H]CQ transport, trans-stimulation (% PfCRTDd2 control)” value in assay [4] (setting [10]) stood at 101 ± 3.5 % PfCRTDd2 control; in [4] (setting [11]) it was 113 ± 1.2 % PfCRTDd2 control. In addition, the “[3H]CQ transport (% PfCRTDd2 control), trans-stimulation, PfCRTDd2” value in [4] (setting [12]) stood at 101 ± 3.5 % PfCRTDd2 control; in assay [4] (setting [13]), 113 ± 1.2 % PfCRTDd2 control. Further, the “PfCRT-mediated [3H]CQ transport, trans-stimulation (% PfCRTEcu1110 control)” value in assay [5] (setting [10]) came out at 120 ± 2.4 % PfCRTEcu1110 control; in assay [5] (setting [11]) it was 128 ± 2.9 % PfCRTEcu1110 control. In addition, the “[3H]CQ transport (% PfCRTDd2 control), trans-stimulation, PfCRTEcu1110” value in assay [5] (setting [12]) worked out at 36 ± 1.3 % PfCRTEcu1110 control; in [5] (setting [13]) it was 39 ± 1.8 % PfCRTEcu1110 control. The “Tested as potential co-substrate but not required for influx of VF-6 via PfCRT into the oocyte” value in [6] is given as “X”.
